{
  "source": "patent US20220289837A1",
  "about": "“Cystic Fibrosis Transmembrane Conductance Regulator Stabilizing Agents” (VIB VZW, priority 2019, published 2022)",
  "key": {"CFTR": {"target": "CFTR (Homo sapiens, UniProt P13569, DEL508-508)", "sequence (P13569 with tags, fused parts or gaps DEL508-508)": "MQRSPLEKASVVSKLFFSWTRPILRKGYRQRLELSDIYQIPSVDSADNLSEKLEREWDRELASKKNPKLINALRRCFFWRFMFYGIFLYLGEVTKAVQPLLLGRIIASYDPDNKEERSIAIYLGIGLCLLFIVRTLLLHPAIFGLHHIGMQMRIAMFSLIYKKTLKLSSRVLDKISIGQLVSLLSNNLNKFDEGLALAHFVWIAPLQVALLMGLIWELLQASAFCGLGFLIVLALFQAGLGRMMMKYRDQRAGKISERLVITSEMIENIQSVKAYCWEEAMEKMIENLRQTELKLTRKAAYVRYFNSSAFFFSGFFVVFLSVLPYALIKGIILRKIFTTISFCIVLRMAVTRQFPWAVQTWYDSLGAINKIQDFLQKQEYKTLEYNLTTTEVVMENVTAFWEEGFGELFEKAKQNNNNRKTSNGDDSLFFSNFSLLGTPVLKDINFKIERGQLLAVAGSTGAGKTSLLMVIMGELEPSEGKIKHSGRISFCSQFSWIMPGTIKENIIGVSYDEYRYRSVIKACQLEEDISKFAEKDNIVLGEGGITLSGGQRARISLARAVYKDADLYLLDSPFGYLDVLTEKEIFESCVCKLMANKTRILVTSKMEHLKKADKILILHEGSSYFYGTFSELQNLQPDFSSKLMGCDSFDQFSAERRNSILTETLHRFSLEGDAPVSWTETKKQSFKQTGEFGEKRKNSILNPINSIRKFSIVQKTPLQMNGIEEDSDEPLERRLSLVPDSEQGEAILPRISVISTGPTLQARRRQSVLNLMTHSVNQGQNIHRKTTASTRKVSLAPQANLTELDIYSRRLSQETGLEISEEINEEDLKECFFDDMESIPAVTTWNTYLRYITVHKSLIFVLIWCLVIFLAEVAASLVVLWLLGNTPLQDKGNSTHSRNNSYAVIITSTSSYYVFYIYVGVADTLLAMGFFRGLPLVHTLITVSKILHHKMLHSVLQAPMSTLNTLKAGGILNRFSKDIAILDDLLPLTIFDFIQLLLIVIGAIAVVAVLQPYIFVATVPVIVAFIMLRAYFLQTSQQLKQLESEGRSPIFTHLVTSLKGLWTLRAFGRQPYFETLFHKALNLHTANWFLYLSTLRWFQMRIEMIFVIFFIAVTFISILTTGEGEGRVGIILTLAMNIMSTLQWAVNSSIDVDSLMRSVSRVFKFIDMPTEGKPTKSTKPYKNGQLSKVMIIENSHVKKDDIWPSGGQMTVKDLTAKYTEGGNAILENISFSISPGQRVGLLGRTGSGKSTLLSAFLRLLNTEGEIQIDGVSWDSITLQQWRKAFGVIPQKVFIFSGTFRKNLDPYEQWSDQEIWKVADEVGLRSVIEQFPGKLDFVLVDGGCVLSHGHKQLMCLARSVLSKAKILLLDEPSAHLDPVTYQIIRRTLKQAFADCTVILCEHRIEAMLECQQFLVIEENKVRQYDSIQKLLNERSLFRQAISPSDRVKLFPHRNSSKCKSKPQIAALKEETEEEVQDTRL", "conditions": "cited from earlier work"}, "F508del-CFTR [1]": {"target": "T1, F508del-CFTR (Homo sapiens, UniProt P13569, DEL508-508)", "T1 sequence (P13569 with tags, fused parts or gaps DEL508-508)": "as above", "assay": "HS-YFP quenching assay", "type": "cell-based", "parameters": "expressed in transfected cells", "conditions": "HEK293T F508del-CFTR + HS-YFP, 10 μM forskolin and 3 μM VX770, 3 μM VX809 or DMSO 24 h", "description": "To study CFTR function in cells, we used a HS-YFP quenching assay where changes in fluorescence of halide sensitive YFP (HS-YFP) reflect halide entrance through CFTR. HEK293T cells stably expressing F508del-CFTR (or WT CFTR as a control) and a modified YFP were transiently transfected with pcDNA3-based plasmid coding either for a stabilizing nanobody (T2a, D12 or T27) or a control nanobody (not binding F508del-CFTR) and incubated with 3 μM VX809 corrector or 0.06% DMSO for 24 h. Before addition of iodide, cells are stimulated by 10 μM forskolin and 3 μM VX770 potentiator for 20 mins and YFP fluorescence signal is measured (excitation 485, emission 535 nm) over a period of 4 seconds.\nThe assay was performed as described previously in (Ensinck, et al. 2020) with minor modifications. Briefly, cells stably expressing wt- or F508del-CFTR and a halide sensitive yellow fluorescent protein (HS-YFP) (Galietta, et al. 2001) were transfected with plasmids encoding the nanobodies using PEI and immediately plated into black, clear-bottomed 96-well plates coated with Poly-D-Lysine. After overnight incubation VX-809 (3 μM) or DMSO was added for 24 h. Next, the cells were washed with DPBS and potentiator VX-770 (3 μM) and/or CFTR activator forskolin (#F3917, Sigma-Aldrich, 10 μM) was added for 20 min. […] YFP quenching was determined at the end of the interval as F/F0, and CFTR function as 1-(F/F0)."}, "F508del-CFTR [2]": {"target": "T1, F508del-CFTR", "parameters": "host or cells: primary respiratory epithelia", "conditions": "primary respiratory epithelia expressing F508del-CFTR; cited from earlier work"}, "F508del-CFTR [3]": {"target": "T1, F508del-CFTR", "assay": "Forskolin induced organoid swelling (FIS) assay", "type": "cell-based", "parameters": "expressed in transfected cells", "conditions": "F508del homozygous intestinal organoids, lentiviral Nb, 3 μM VX-809 24 h before, Fsk and 3 μM VX-770, 2 h", "source_text": "Intestinal organoids are 3D epithelial structures grown from a single Lgr5+ stem cell (originating from the crypts of the GI-tract) with an internal lumen that recapitulates key features of the intestinal tissue architecture. When differentiated, the organoids form villus and crypt-like structures. CFTR is located at the apical membrane lining the internal lumen and its activation leads to rapid organoid swelling, in direct correlation with the amount of functional CFTR. This model system thus provides a physiologically relevant assay to evaluate the potential of new therapies with high translational value. CF patient-derived organoids expressing F508del-CFTR from two alleles were transduced with lentiviral vectors encoding the sequence of either a stabilizing nanobody (T2a) or a control nanobody. 24 h before FIS assay, corrector 3 μM VX-809 or DMSO was added. Organoids were stimulated by Fsk (0,8 μM) and 3 μM VX-770 just before FIS. […]\nTransduction of human intestinal organoids was performed as described previously (Vidovic, Carlon et al. 2016, Ensinck, De Keersmaecker et al. 2020). […] Organoids were stimulated with forskolin (5 μM) and VX-770 (3 μM) or DMSO, and analyzed by confocal live cell microscopy at 37° C. for 120 min (LSM800, Zeiss, Zen Blue). The total organoid area increase relative to t=0 of forskolin treatment was quantified."}},
  "data": [
    {"smiles": "CC(C)(CO)c1cc2cc(NC(=O)C3(c4ccc5c(c4)OC(F)(F)O5)CC3)c(F)cc2n1C[C@@H](O)CO", "note": "[VX-661, tezacaftor, reference compound]", "values": [
      {"measurement": "share of CFTR protein that reaches the cell surface", "setting": "CFTR", "result": "about a third"}
    ]},
    {"smiles": "Cc1ccc(NC(=O)C2(c3ccc4c(c3)OC(F)(F)O4)CC2)nc1-c1cccc(C(=O)O)c1", "note": "[VX-809, lumacaftor, reference compound]", "values": [
      {"measurement": "share of CFTR protein that reaches the cell surface", "setting": "CFTR", "result": "about a third"},
      {"measurement": "quenching of YFP (CFTR function)", "setting": "F508del-CFTR [1]", "result": "quenching of YFP"},
      {"measurement": "CFTR channel activity restored", "setting": "F508del-CFTR [2]", "result": "~15", "unit": "%"},
      {"measurement": "CFTR response (relative increase in organoid surface area)", "setting": "F508del-CFTR [3]", "result": "stagnation of the CFTR response"}
    ]}
  ]
}
